The values below are quoted from earlier work in patent publication US20070099863A1, “Compounds for the treatment of demyelinating and autoimmune diseases” (priority 2003, published 2007).

Structures can show the parent of a compound that is named as a salt.

The target in one series is T1, P2X7 (Homo sapiens, UniProt Q99572).
T1 sequence (Q99572 1-595): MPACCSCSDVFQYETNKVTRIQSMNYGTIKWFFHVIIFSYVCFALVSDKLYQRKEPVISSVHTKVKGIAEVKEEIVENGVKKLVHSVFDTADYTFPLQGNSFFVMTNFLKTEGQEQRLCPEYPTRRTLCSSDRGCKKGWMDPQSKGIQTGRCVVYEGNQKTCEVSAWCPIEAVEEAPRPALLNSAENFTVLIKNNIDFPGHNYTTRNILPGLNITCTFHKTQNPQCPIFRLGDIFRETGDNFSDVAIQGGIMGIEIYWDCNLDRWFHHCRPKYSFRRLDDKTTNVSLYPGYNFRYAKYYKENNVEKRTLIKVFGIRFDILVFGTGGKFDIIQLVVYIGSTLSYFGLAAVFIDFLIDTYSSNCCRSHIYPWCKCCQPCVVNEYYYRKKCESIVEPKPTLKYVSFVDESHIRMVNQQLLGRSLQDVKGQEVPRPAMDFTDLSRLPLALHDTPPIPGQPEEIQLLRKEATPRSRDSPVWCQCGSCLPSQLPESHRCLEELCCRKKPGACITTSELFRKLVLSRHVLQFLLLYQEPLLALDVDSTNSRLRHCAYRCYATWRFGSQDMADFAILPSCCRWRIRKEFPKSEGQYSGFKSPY
The note with it: P2X7 subtype; read-out: IC50 in relation to P2X7; cited from earlier work.

The target in a further series is T2, P2X4 (Homo sapiens, UniProt Q99571).
T2 sequence (Q99571 1-388): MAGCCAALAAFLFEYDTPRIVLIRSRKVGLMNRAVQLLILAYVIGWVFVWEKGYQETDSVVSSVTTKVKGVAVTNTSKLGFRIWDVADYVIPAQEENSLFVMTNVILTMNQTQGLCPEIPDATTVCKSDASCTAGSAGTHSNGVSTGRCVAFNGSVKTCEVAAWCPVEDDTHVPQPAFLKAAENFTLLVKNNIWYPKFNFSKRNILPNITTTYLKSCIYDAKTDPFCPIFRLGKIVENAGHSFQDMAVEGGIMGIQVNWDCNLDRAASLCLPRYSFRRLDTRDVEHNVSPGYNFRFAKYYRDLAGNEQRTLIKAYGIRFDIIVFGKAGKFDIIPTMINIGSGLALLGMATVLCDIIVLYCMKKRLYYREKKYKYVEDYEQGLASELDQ
The note with it: P2X4 subtype; read-out: IC50 in relation to P2X4; cited from earlier work.

For another series, the target named is P2X5 (Homo sapiens, UniProt Q93086). Conditions: P2X5 subtype; read-out: IC50 in relation to P2X5; cited from earlier work.
Chain of P2X5 (Q93086 whole entry, species assumed): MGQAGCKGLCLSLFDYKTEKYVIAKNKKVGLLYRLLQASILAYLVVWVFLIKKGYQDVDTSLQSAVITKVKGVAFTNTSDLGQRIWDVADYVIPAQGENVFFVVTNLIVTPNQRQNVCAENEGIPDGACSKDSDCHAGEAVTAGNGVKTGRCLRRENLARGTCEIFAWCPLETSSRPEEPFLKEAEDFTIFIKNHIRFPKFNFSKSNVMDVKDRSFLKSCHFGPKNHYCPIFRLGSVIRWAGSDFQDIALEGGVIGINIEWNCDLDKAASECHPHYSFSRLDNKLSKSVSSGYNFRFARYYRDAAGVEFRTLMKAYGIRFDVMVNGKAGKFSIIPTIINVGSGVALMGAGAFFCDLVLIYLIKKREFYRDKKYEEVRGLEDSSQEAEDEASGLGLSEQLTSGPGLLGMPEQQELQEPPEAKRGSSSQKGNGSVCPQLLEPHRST

What is called IC50 is the concentration needed to halve the response being measured. Consider `CCOc1ccc(Nc2ccc(/C(=C3C=C/C(=[N+](/CC)Cc4cccc(S(=O)(=O)[O-])c4)C=C/3C)c3ccc(N(CC)Cc4cccc(S(=O)(=O)O)c4)cc3C)cc2)cc1` [BBG, Coomassie brilliant blue G], for which the concentration for half-maximal inhibition (IC50) was 0.01 µM at P2X7 and greater than 10 µM at P2X4.
Turning to `Cc1ccc(C(=O)Nc2ccc(S(=O)(=O)O)c3cc(S(=O)(=O)O)cc(S(=O)(=O)O)c23)cc1NC(=O)c1cccc(NC(=O)Nc2cccc(C(=O)Nc3cc(C(=O)Nc4ccc(S(=O)(=O)O)c5cc(S(=O)(=O)O)cc(S(=O)(=O)O)c45)ccc3C)c2)c1` [Suramin, hexasodium salt of 8,8′-[carbonylbis[imino-3,1-phenylenecarbonylimino(4-methyl-3,1-phenylene)carbonylimino]]bisnaphthalene-1,3,5-trisulphonic acid], the IC50 is 4 µM on P2X5 and 178 µM at P2X4.
